Square brackets hold non-standard residues; d marks the D form. Peptide text beside a SMILES is read from it. Arg(Me) = CNC(=N)NCCC[C@H](N)C(=O)O; d4Pal = N[C@H](Cc1ccncc1)C(=O)O; azaGly = NNC(=O)O
Key:
Type in all cases: functional, Homo sapiens
Details in all cases: Homo sapiens, read-out: Cell Viability; for viability at 10 µM: Concentration 10 uM; for viability at 1 µM: Concentration 1 uM
Colon cancer organoid [1] = experiment: Targeting of F14 CAF-induced therapy resistance in O23 CRC organoid-stroma co-culture. Cell viability is reported without Gefitinib.
Colon cancer organoid [2] = experiment: Targeting of F14 CAF-induced therapy resistance in O14 CRC organoid-stroma co-culture. Cell viability is reported with Gefitinib.
Colon cancer organoid [3] = experiment: Targeting of F14 CAF-induced therapy resistance in O23 CRC organoid-stroma co-culture. Cell viability is reported with Gefitinib.
Colon cancer organoid [4] = experiment: Targeting of F14 CAF-induced therapy resistance in O23 CRC organoid-stroma co-culture. Cell viability is reported with SN-38.
Colon cancer organoid [5] = experiment: Targeting of F14 CAF-induced therapy resistance in O14 CRC organoid-stroma co-culture. Cell viability is reported without Gefitinib.

| SMILES | viability at 10 µM (Colon cancer organoid [1]) | viability at 10 µM (Colon cancer organoid [2]) | viability at 10 µM (Colon cancer organoid [3]) | viability at 10 µM (Colon cancer organoid [4]) | viability at 10 µM (Colon cancer organoid [5]) | viability at 1 µM (Colon cancer organoid [1]) | viability at 1 µM (Colon cancer organoid [2]) | viability at 1 µM (Colon cancer organoid [3]) | viability at 1 µM (Colon cancer organoid [4]) | viability at 1 µM (Colon cancer organoid [5]) |
| --- | --- | --- | --- | --- | --- | --- | --- | --- | --- | --- |
| CCN(CCO)CCCOc1ccc2c(Nc3cc(CC(=O)Nc4cccc(F)c4)[nH]n3)ncnc2c1 [DEFOSBARASERTIB] | 62.1% | 3.88% | 19.2% | 28.3% | 9.69% |  |  |  |  |  |
| Cn1c(-c2csc(C3CCN(CC4=NC5N=CC=CC5N4)CC3)n2)nc2ccccc21 (stereo not given) [BAY-070] | 136% | 44.6% | 73.4% | 105% | 90.7% |  |  |  |  |  |
| C[C@@H]1CN(c2cc(-c3n[nH]c4ccc(OC5(C)CC5)cc34)ncn2)C[C@H](C)O1 [MLi-2] |  |  |  |  |  | 102% | 27.4% | 41% | 46.4% | 113% |
| Cc1nc(N2CC[C@H](O)C2)ncc1-c1cc(C(F)(F)F)cc2[nH]ncc12 | 123% | 21.1% | 51.5% | 82.7% | 91% |  |  |  |  |  |
| CC(=O)NCC(=O)N1[C@@H]2CC[C@H]1c1ccc(Nc3ncc(C(F)(F)F)c(NC4CCC4)n3)cc12 [PF-03814735] | 33.7% | 4.93% | 25.7% | 48.4% | 14.8% |  |  |  |  |  |
| Nc1ncnc2c1ccn2[C@@H]1O[C@H]([C@H](O)c2ccccc2)[C@@H](O)[C@H]1O | 97.6% | 14.9% | 45% | 68.9% | 14.9% |  |  |  |  |  |
| Cc1cc(Nc2nccc(C)n2)cc(-c2cnc([C@@]3(O)CC[C@H](C(=O)O)C(C)(C)C3)s2)c1 [MRL-SYKi] |  |  |  |  |  | 127% | 32.9% | 63.4% | 81.4% | 137% |
| CNC(=N)NCCC[C@H](NC(=O)[C@H](CC(C)C)NC(=O)NNC(=O)[C@H](Cc1ccccc1)NC(=O)[C@H](CO)NC(=O)[C@H](CC(N)=O)NC(=O)[C@@H](Cc1ccncc1)NC(=O)[C@H](N)Cc1ccc(O)cc1)C(=O)N[C@@H](Cc1ccccc1)C(N)=O [KISS1-305] (H-[dY][d4Pal]NSF[azaGly]L[Arg(Me)]F-NH2) | 97.6% | 52.8% | 66.9% | 61.3% | 119% |  |  |  |  |  |
| CS(=O)(=O)NCC[C@H](NC(=O)c1cncc2c1cnn2-c1ccc(F)cc1)c1ccnc(S(C)(=O)=O)c1 [BI 9307] |  |  |  |  |  | 114% | 37.4% | 116% | 70.6% | 105% |
| COc1cc(Nc2nc(C)cc(-c3cnn4nc(OC)ccc34)n2)cc(C(F)(F)F)c1 | 119% | 52.6% | 68.9% | 59.6% | 115% |  |  |  |  |  |
| Cc1ccc(-c2cnc([C@@]3(O)CC[C@H](C(=O)O)C(C)(C)C3)s2)cc1Nc1cccc(C(F)(F)F)n1 [MRL-SYKi-NC] | 139% | 48.6% | 51.3% | 73.3% | 110% |  |  |  |  |  |
| Cn1cncc1[C@](O)(COc1ccc(C#N)cc1-c1ccc(OC(F)(F)F)cc1)c1ccc(C#N)cc1 | 75.6% | 18.5% | 40.9% | 76.2% | 47% |  |  |  |  |  |
| O=C(NNS(=O)(=O)c1ccccc1F)c1cc(F)cc(-c2ccccn2)c1 [WM-1119] | 121% | 19.4% | 40.5% | 57.2% | 41% |  |  |  |  |  |
| COc1cccc(CNC(=O)c2nc3scc(COCc4ccc(C(=O)O)cc4)c3c(=O)[nH]2)c1 [T-26c] |  |  |  |  |  | 98.3% | 60% | 68.3% | 62.7% | 173% |
| CC(C)(C)OC(=O)N1CCCC1CNC1CCC(c2cc(F)ccc2F)(S(=O)(=O)c2ccc(Cl)cc2)CC1 (stereo not given) [GSI-NC] | 109% | 52.1% | 42.1% | 78.6% | 74.5% |  |  |  |  |  |
| Cc1cc(C)cc(C(=O)NOCCCCCC(=O)NO)c1 | 193% | 31.1% | 220% | 130% | 28.3% |  |  |  |  |  |
| C[C@H](NC(=O)c1cnc2n1[C@](C)(Cc1ccc(C#N)cc1)C(=O)N2c1cc(Cl)c(F)c(Cl)c1)C(=O)NC1(c2ccccn2)CC1 [BI 1950] | 104% | 44.4% | 52.2% | 85.8% | 125% |  |  |  |  |  |
| CN1C[C@H](Nc2cnn(C)c(=O)c2Br)C[C@H](c2ccccc2)C1 | 143% | 64.7% | 68.1% | 66.4% | 84.6% |  |  |  |  |  |
| Cn1cc(Cl)c2c(Oc3c(F)cc(Nc4cc(Cl)nc(N)n4)cc3F)ccnc21 [BAY-4900] | 107% | 30.9% | 40.3% | 54.4% | 85% |  |  |  |  |  |

Reference: ChEMBL document CHEMBL5608113, “Targeting of CAF-induced therapy resistance in CRC organoid-stroma co-cultures” (2024)
